From PubChem BioAssay (NCI)
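Assay format: 96-well plates, 48-hour exposure. TGI: total growth inhibition.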

Experiments:
Experiment in all cases: inhibition of tumour cell growth, NCI panel, 48 h
786-0 renal = test system: 786-0 renal
A498 renal = test system: A498 renal
A549 NSCLC = test system: A549 NSCLC
ACHN renal = test system: ACHN renal
CAKI-1 renal = test system: CAKI-1 renal
CCRF-CEM leukemia = test system: CCRF-CEM leukemia
COLO 205 colon = test system: COLO 205 colon
DU-145 prostate = test system: DU-145 prostate
EKVX NSCLC = test system: EKVX NSCLC
HCC-2998 colon = test system: HCC-2998 colon
HCT-116 colon = test system: HCT-116 colon
HCT-15 colon = test system: HCT-15 colon
HOP-62 NSCLC = test system: HOP-62 NSCLC
HOP-92 NSCLC = test system: HOP-92 NSCLC
HS 578T breast = test system: HS 578T breast
HT29 colon = test system: HT29 colon
IGROV1 ovarian = test system: IGROV1 ovarian
K-562 leukemia = test system: K-562 leukemia
KM12 colon = test system: KM12 colon
LOX IMVI melanoma = test system: LOX IMVI melanoma
M14 melanoma = test system: M14 melanoma
MALME-3M melanoma = test system: MALME-3M melanoma
MCF7 breast = test system: MCF7 breast
MDA-MB-231 breast = test system: MDA-MB-231 breast
MDA-MB-435 = test system: MDA-MB-435
MDA-N = test system: MDA-N
MOLT-4 leukemia = test system: MOLT-4 leukemia
NCI-H226 lung = test system: NCI-H226 lung
NCI-H23 lung = test system: NCI-H23 lung
NCI-H460 lung = test system: NCI-H460 lung
NCI-H522 lung = test system: NCI-H522 lung
NCI/ADR-RES ovarian = test system: NCI/ADR-RES ovarian
OVCAR-3 ovarian = test system: OVCAR-3 ovarian
OVCAR-4 ovarian = test system: OVCAR-4 ovarian
OVCAR-5 ovarian = test system: OVCAR-5 ovarian
OVCAR-8 ovarian = test system: OVCAR-8 ovarian
PC-3 prostate = test system: PC-3 prostate
RPMI-8226 leukemia = test system: RPMI-8226 leukemia
SF-268 CNS = test system: SF-268 CNS
SF-295 CNS = test system: SF-295 CNS
SF-539 CNS = test system: SF-539 CNS
SK-MEL-2 melanoma = test system: SK-MEL-2 melanoma
SK-MEL-28 melanoma = test system: SK-MEL-28 melanoma
SK-MEL-5 melanoma = test system: SK-MEL-5 melanoma
SK-OV-3 ovarian = test system: SK-OV-3 ovarian
SN12C renal = test system: SN12C renal
SNB-19 CNS = test system: SNB-19 CNS
SNB-75 CNS = test system: SNB-75 CNS
SR leukemia = test system: SR leukemia
SW-620 colon = test system: SW-620 colon
T-47D breast = test system: T-47D breast
TK-10 renal = test system: TK-10 renal
U251 CNS = test system: U251 CNS
UACC-257 melanoma = test system: UACC-257 melanoma
UACC-62 melanoma = test system: UACC-62 melanoma
UO-31 renal = test system: UO-31 renal
HL-60(TB) leukemia = test system: HL-60(TB) leukemia
RXF 393 renal = test system: RXF 393 renal
BT-549 breast = test system: BT-549 breast

CCC1=C(c2ccc(OC)cc2)CC[C@@]2(CCNC2=O)[C@@H]1C
TGI (786-0 renal): > 100 µM | TGI (A498 renal): > 100 µM | TGI (A549 NSCLC): > 100 µM | TGI (ACHN renal): > 100 µM | TGI (CAKI-1 renal): > 100 µM | TGI (CCRF-CEM leukemia): > 100 µM | TGI (COLO 205 colon): > 100 µM | TGI (DU-145 prostate): > 100 µM | TGI (EKVX NSCLC): > 100 µM | TGI (HCC-2998 colon): > 100 µM | TGI (HCT-116 colon): > 100 µM | TGI (HCT-15 colon): > 100 µM | TGI (HOP-62 NSCLC): > 100 µM | TGI (HOP-92 NSCLC): > 100 µM | TGI (HS 578T breast): > 89.5 µM | TGI (HT29 colon): > 100 µM | TGI (IGROV1 ovarian): > 100 µM | TGI (K-562 leukemia): > 95.9 µM | TGI (KM12 colon): > 100 µM | TGI (LOX IMVI melanoma): > 100 µM | TGI (M14 melanoma): > 100 µM | TGI (MALME-3M melanoma): > 100 µM | TGI (MCF7 breast): > 100 µM | TGI (MDA-MB-231 breast): > 100 µM | TGI (MDA-MB-435): > 100 µM | TGI (MDA-N): > 100 µM | TGI (MOLT-4 leukemia): > 90.3 µM | TGI (NCI-H226 lung): > 100 µM | TGI (NCI-H23 lung): > 100 µM | TGI (NCI-H460 lung): > 100 µM | TGI (NCI-H522 lung): > 100 µM | TGI (NCI/ADR-RES ovarian): > 100 µM | TGI (OVCAR-3 ovarian): > 100 µM | TGI (OVCAR-4 ovarian): > 100 µM | TGI (OVCAR-5 ovarian): > 100 µM | TGI (OVCAR-8 ovarian): > 100 µM | TGI (PC-3 prostate): > 100 µM | TGI (RPMI-8226 leukemia): > 100 µM | TGI (SF-268 CNS): > 100 µM | TGI (SF-295 CNS): > 100 µM | TGI (SF-539 CNS): > 100 µM | TGI (SK-MEL-2 melanoma): > 100 µM | TGI (SK-MEL-28 melanoma): > 100 µM | TGI (SK-MEL-5 melanoma): 58.7 µM | TGI (SK-OV-3 ovarian): > 100 µM | TGI (SN12C renal): > 100 µM | TGI (SNB-19 CNS): > 100 µM | TGI (SNB-75 CNS): > 100 µM | TGI (SR leukemia): > 100 µM | TGI (SW-620 colon): > 100 µM | TGI (T-47D breast): > 100 µM | TGI (TK-10 renal): > 100 µM | TGI (U251 CNS): > 100 µM | TGI (UACC-257 melanoma): > 100 µM | TGI (UACC-62 melanoma): > 100 µM | TGI (UO-31 renal): > 100 µM

c1ccc([P+](CCN2Cc3ccccc3C2)(c2ccccc2)c2ccccc2)cc1
TGI (786-0 renal): 44.4 µM | TGI (A498 renal): 55.6 µM | TGI (A549 NSCLC): > 100 µM | TGI (ACHN renal): 23.1 µM | TGI (CAKI-1 renal): > 100 µM | TGI (CCRF-CEM leukemia): 40.5 µM | TGI (COLO 205 colon): 3.45 µM | TGI (DU-145 prostate): 45.6 µM | TGI (EKVX NSCLC): > 100 µM | TGI (HCC-2998 colon): 15.9 µM | TGI (HCT-116 colon): 20.9 µM | TGI (HCT-15 colon): 36.2 µM | TGI (HL-60(TB) leukemia): 10.5 µM | TGI (HOP-62 NSCLC): 45.3 µM | TGI (HOP-92 NSCLC): 6.41 µM | TGI (HS 578T breast): > 100 µM | TGI (HT29 colon): 22.2 µM | TGI (IGROV1 ovarian): 5.87 µM | TGI (K-562 leukemia): > 100 µM | TGI (KM12 colon): 16 µM | TGI (LOX IMVI melanoma): 33 µM | TGI (M14 melanoma): 23 µM | TGI (MALME-3M melanoma): 25.1 µM | TGI (MCF7 breast): 14.4 µM | TGI (MDA-MB-231 breast): 16.2 µM | TGI (MDA-MB-435): 13.7 µM | TGI (MDA-N): 14.3 µM | TGI (MOLT-4 leukemia): > 100 µM | TGI (NCI-H226 lung): 31.7 µM | TGI (NCI-H23 lung): > 100 µM | TGI (NCI-H460 lung): > 100 µM | TGI (NCI-H522 lung): 12.2 µM | TGI (NCI/ADR-RES ovarian): > 100 µM | TGI (OVCAR-3 ovarian): 18.1 µM | TGI (OVCAR-5 ovarian): 57 µM | TGI (OVCAR-8 ovarian): 7.95 µM | TGI (PC-3 prostate): > 100 µM | TGI (RXF 393 renal): 22.3 µM | TGI (SF-268 CNS): 30.1 µM | TGI (SF-295 CNS): 83.9 µM | TGI (SF-539 CNS): 24.4 µM | TGI (SK-MEL-2 melanoma): 5.41 µM | TGI (SK-MEL-28 melanoma): 9.6 µM | TGI (SK-MEL-5 melanoma): 11.3 µM | TGI (SK-OV-3 ovarian): 66.2 µM | TGI (SN12C renal): 32.8 µM | TGI (SNB-19 CNS): > 100 µM | TGI (SNB-75 CNS): 8.71 µM | TGI (SR leukemia): 52 µM | TGI (SW-620 colon): 25.8 µM | TGI (T-47D breast): 24.3 µM | TGI (TK-10 renal): 41.5 µM | TGI (U251 CNS): 19.5 µM | TGI (UACC-257 melanoma): 12.4 µM | TGI (UACC-62 melanoma): 13.1 µM | TGI (UO-31 renal): 34.6 µM

CCOC(=O)N/N=C(\Cc1ccccc1)OCC
TGI (786-0 renal): > 100 µM | TGI (A549 NSCLC): > 100 µM | TGI (ACHN renal): > 100 µM | TGI (BT-549 breast): > 100 µM | TGI (CCRF-CEM leukemia): > 100 µM | TGI (COLO 205 colon): > 100 µM | TGI (DU-145 prostate): > 100 µM | TGI (EKVX NSCLC): > 100 µM | TGI (HCC-2998 colon): > 100 µM | TGI (HCT-116 colon): > 100 µM | TGI (HCT-15 colon): > 100 µM | TGI (HOP-62 NSCLC): > 100 µM | TGI (HOP-92 NSCLC): > 100 µM | TGI (HT29 colon): > 100 µM | TGI (IGROV1 ovarian): > 100 µM | TGI (K-562 leukemia): > 100 µM | TGI (KM12 colon): > 100 µM | TGI (LOX IMVI melanoma): > 100 µM | TGI (M14 melanoma): > 100 µM | TGI (MCF7 breast): > 100 µM | TGI (MDA-MB-231 breast): > 100 µM | TGI (MDA-MB-435): > 100 µM | TGI (MDA-N): > 100 µM | TGI (MOLT-4 leukemia): > 100 µM | TGI (NCI-H23 lung): > 100 µM | TGI (NCI-H522 lung): > 100 µM | TGI (NCI/ADR-RES ovarian): > 100 µM | TGI (OVCAR-3 ovarian): > 100 µM | TGI (OVCAR-4 ovarian): > 100 µM | TGI (OVCAR-5 ovarian): > 100 µM | TGI (OVCAR-8 ovarian): > 100 µM | TGI (PC-3 prostate): > 100 µM | TGI (RPMI-8226 leukemia): > 100 µM | TGI (RXF 393 renal): > 100 µM | TGI (SF-268 CNS): > 100 µM | TGI (SF-295 CNS): > 100 µM | TGI (SF-539 CNS): > 100 µM | TGI (SK-MEL-2 melanoma): > 100 µM | TGI (SK-MEL-5 melanoma): > 100 µM | TGI (SK-OV-3 ovarian): > 100 µM | TGI (SN12C renal): > 100 µM | TGI (SNB-19 CNS): > 100 µM | TGI (SNB-75 CNS): > 100 µM | TGI (SR leukemia): > 100 µM | TGI (SW-620 colon): > 100 µM | TGI (TK-10 renal): > 100 µM | TGI (U251 CNS): > 100 µM | TGI (UACC-257 melanoma): > 100 µM | TGI (UACC-62 melanoma): > 100 µM | TGI (UO-31 renal): > 100 µM
